Measured values published in US9914724B2, “C-aryl glycosid derivatives, pharmaceutical composition, preparation process and uses thereof” (SHANGHAI DE NOVO PHARMATECH CO. LTD., priority 2014, dated 2018).

Legend:
[1] = biological target: T1, SGLT-2 (Homo sapiens, UniProt P31639); assay: [14C]-AMG absorption in stable SGLT2 expressing Flp-in CHO cells (SGLT-2 activity screening assay); type: cell-based; conditions: 14C-AMG uptake, 37° C. 1 h, 1% DMSO
T1 sequence (P31639 1-672): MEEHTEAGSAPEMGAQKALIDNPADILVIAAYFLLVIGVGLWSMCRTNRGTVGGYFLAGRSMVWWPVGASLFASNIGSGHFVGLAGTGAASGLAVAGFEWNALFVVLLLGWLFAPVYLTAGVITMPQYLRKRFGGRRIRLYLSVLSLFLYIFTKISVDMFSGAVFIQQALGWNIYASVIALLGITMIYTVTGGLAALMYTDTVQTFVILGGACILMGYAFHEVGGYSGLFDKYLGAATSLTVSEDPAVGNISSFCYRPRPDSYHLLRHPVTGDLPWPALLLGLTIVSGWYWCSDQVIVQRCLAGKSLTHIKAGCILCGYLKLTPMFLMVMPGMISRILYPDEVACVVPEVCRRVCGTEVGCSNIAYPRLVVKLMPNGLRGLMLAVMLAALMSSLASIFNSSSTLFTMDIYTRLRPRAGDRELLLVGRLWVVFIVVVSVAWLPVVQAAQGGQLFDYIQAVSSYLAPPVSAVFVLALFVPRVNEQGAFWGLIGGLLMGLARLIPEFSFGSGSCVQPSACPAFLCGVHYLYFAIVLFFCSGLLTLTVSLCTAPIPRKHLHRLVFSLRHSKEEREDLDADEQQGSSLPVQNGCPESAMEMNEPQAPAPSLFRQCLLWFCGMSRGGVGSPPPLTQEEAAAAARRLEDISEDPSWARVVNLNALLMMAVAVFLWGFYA
Excerpt: (§1) Example 1: [^14C]-AMG Absorption in Stable SGLT1 and SGLT2 Expressing Flp-in CHO Cells (SGLT-1 and SGLT-2 Activity Screening Assay)
(§2) SGLT-1 and SGLT-2 cDNA clones were purchased from OriGene. After sequencing verification, the expression vectors were constructed based on pcDNA5/FRT using conventional molecular biology method. The expression vector was transfected into Flp-in CHO cells using Lipofectamin 2000. The transfected cells were subject hygromycin selection. The single clones of cells were selected by serial dilutions 4-5 weeks after transfection. The expression of SGLT-1 ? SGLT-2 were confirmed by RT-PCR and functional assay and cell line with strong signal was selected for subsequent study.
(§3) Culture of stable SGLT-1 and SGLT-2 expressing Flp-in CHO cell line: the culture media contain F12 medium (Invitrogen), 500 μg/ml hygromycin (Calbiochem) and 10% FBS (Invitrogen). Upon 80% confluency, the cells in the T75 flask were washed three times with PBS (Invitrogen), and 5 mL of Trpsin-EDTA solution (Invitrogen) was then added. The flask was gently rotated so that all the cells were submerged in the digestion solution. After the cells detach, 10 mL of culture medium was added and single cell suspension was prepared by pipetting up and down. The cell concentration was adjusted to 3×10^5/mL, 100 μL/well was added onto clear bottom 96-well plate (Corning).
(§4) The cells were ready for absorption assay once they attached after overnight culture. 12 h after cell plating, the cells were washed once with 150 μL/well absorption solution KRH-NMG (120 mM NMG, 4.7 mM KCl, 1.2 mM MgCl2, 2.2 mM CaCl2, 10 mM HEPES, pH 7.4 1 mM Tris). The solution was then removed from the well. 2.5 μCi/mL ^14C labeled AMG (PerkinElmer) Buffer KRH-Na+ (120 mM NaCl, 4.7 mM KCl, 1.2 mM MgCl2, 2.2 mM CaCl2, 10 mM HEPES, pH 7.4 1 mM Tris) was added at […] after washing with Buffer KRH-Na+ and KRH-NMG. The corresponding compound I was immediately added at 5 μL/well, ensuring the concentration of Dimethyl Sulfoxide was 1% (v/v). The plate was subsequently incubated at 37° C. for 1 h, after which 150 μL of ice cold wash buffer (120 mM NaCl, 4.7 mM KCl, 1.2 mM MgCl2, 2.2 mM CaCl2, 10 mM HEPES, 0.5 mM phlorizin, pH 7.4 1 mM Tris) was immediately added to terminate the reaction. Each well was washed three times with wash buffer and finally the solution was removed. Caution was taken to avoid cell detachment during the procedure. 20 μL/well of Lysis Buffer (0.1 mM NaOH) was added, the plate was vortexed at 900 rpm for 5 min. 80 μL/well of scintillation solution Microsint40 was added, and vortexed at 900 rpm for 5 min. The radioactivity was assayed using MicroBeta Trilux (PerkinElmer). The data was analyzed and IC50 of the compounds was calculated using XL-fit software.

[2] = biological target: T2, SGLT-1 (Homo sapiens, UniProt P13866); assay: [14C]-AMG absorption in stable SGLT1 expressing Flp-in CHO cells (SGLT-1 activity screening assay); type: cell-based; conditions: 14C-AMG uptake, 37° C. 1 h, 1% DMSO
T2 sequence (P13866 1-664): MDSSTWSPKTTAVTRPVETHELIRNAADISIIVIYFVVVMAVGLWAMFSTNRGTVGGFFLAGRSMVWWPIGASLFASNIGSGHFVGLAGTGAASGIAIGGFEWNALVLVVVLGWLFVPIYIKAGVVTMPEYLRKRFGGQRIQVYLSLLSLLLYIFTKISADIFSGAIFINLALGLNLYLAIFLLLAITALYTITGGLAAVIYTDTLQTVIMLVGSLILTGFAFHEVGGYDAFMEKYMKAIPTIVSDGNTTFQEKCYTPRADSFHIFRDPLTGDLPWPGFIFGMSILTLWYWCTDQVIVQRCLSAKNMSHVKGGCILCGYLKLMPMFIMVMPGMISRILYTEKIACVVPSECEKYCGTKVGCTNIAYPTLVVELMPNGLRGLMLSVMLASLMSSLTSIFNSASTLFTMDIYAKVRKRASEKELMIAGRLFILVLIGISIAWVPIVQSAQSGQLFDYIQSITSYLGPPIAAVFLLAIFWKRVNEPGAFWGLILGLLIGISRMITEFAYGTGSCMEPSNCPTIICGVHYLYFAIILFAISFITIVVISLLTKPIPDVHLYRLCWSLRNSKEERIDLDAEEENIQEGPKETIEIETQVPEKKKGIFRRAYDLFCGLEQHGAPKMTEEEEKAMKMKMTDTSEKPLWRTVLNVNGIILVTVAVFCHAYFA
Excerpt: as §1, §2, §3, §4

[3] = test system: C57/BL6 mice; assay: Urinary glucose excretion test in C57/BL6 mice; type: in vivo; conditions: male C57/BL6 mice, 10 mg/Kg oral; for Glucose (excreted urine glucose): then 5 g/Kg glucose, total urine in 24 h, mean of 6 mice; for activity in urinary glucose excretion compared with compound A (Empagliflozin): 24 h urine, statement on Table 2
Procedure: Example 2: Urinary Glucose Excretion Test in C57/BL6 Mice
Adult male C57/BL6 mice with body weight over 20 g (Shanghai LSK Laboratory Animal Ltd) were orally dosed with test compound I (10 mg/Kg) after which the animals were fed with 5 g/Kg glucose. The animals were housed in metabolic cages to collect total urine in 24 h. The cage was washed with 5 mL of normal saline. Water and food were provided to the mice ad libitum during the 24 h period. The urine samples were immediately frozen after collection, and the glucose levels were then determined. The total amount of excreted urine glucose was calculated based on total amount of urine, and then converted to amount of excreted glucose (mg) per 200 mg body weight in 24 h based on mouse body weight. The result is shown in Table 2 (mean values of 6 mice).

IC50 [1] [nM] | IC50 [2] [nM] | SMILES | Glucose (excreted urine glucose) [3] | activity in urinary glucose excretion compared with compound A (Empagliflozin) [3]
1 | 584 | OC[C@H]1O[C@@H](c2ccc(Cl)c(Cc3ccc(OCC4OCc5ccccc54)cc3)c2)[C@H](O)[C@@H](O)[C@@H]1O (stereo partly drawn) [Compound I-36, (2S,3R,4R,5S,6R)-2-(4-chloro-3-(4-((1,3-dihydroisobenzofuran-1-yl)methoxy)benzyl)phenyl)-6-(hydroxymethyl)tetrahydro-2H-pyran-3,4,5-triol] | 1723.1 mg/200 mg body weight/24 h | –
7 | – | OC[C@H]1O[C@@H](c2ccc(Cl)c(Cc3ccc(OCc4cc5ccccc5o4)cc3)c2)[C@H](O)[C@@H](O)[C@@H]1O [Compound I-1, (2S,3R,4R,5S,6R)-2-(3-(4-(benzofuran-2-ylmethoxy)benzyl)-4-chlorophenyl)-6-(hydroxymethyl)tetrahydro-2H-pyran-3,4,5-triol] | 1646.9 mg/200 mg body weight/24 h | significantly more active than compound A
4.1 | 2100 | OC[C@H]1O[C@@H](c2ccc(Cl)c(Cc3ccc(OCC4Cc5ccccc5O4)cc3)c2)[C@H](O)[C@@H](O)[C@@H]1O (stereo partly drawn) [Compound I-22, (2S,3R,4R,5S,6R)-2-(4-chloro-3-(4-((2,3-dihydrobenzofuran-2-yl)methoxy)benzyl)phenyl)-6-(hydroxymethyl)tetrahydro-2H-pyran-3,4,5-triol] | 3106.6 mg/200 mg body weight/24 h | significantly more active than compound A
6.6 | – | OC[C@H]1O[C@@H](c2ccc(Cl)c(Cc3ccc(O[C@H]4CCOC4)cc3)c2)[C@H](O)[C@@H](O)[C@@H]1O [A, Empagliflozin, reference compound] | 1536.5 mg/200 mg body weight/24 h | –
2.7 | 95 | Cc1ccc([C@@H]2O[C@H](CO)[C@@H](O)[C@H](O)[C@H]2O)cc1Cc1ccc(OC[C@@H]2Cc3ccccc3O2)cc1 [Compound I-26, (2S,3R,4R,5S,6R)-2-(3-(4-(((S)-2,3-dihydrobenzofuran-2-yl)methoxy)benzyl)-4-methylphenyl)-6-(hydroxymethyl)tetrahydro-2H-pyran-3,4,5-triol] | – | –
125 | 9370 | OC[C@H]1O[C@@H](c2cccc(Cc3ccc(OCC4Cc5ccccc5O4)cc3)c2)[C@H](O)[C@@H](O)[C@@H]1O (stereo partly drawn) [Compound I-30, (2S,3R,4R,5S,6R)-2-(3-(4-((2,3-dihydrobenzofuran-2-yl)methoxy)benzyl)phenyl)-6-(hydroxymethyl)tetrahydro-2H-pyran-3,4,5-triol] | – | –
18.6 | 655 | Cc1ccc([C@@H]2O[C@H](CO)[C@@H](O)[C@H](O)[C@H]2O)cc1Cc1ccc(OCC2(C)OCc3ccccc32)cc1 (single isomer, unassigned) [Compound I-113] | – | –
15 | 2540 | OC[C@H]1O[C@@H](c2ccc(F)c(Cc3ccc(OCc4cc5ccccc5o4)cc3)c2)[C@H](O)[C@@H](O)[C@@H]1O [Compound I-2, (2S,3R,4R,5S,6R)-2-(3-(4-(benzofuran-2-ylmethoxy)benzyl)-4-fluorophenyl)-6-(hydroxymethyl)tetrahydro-2H-pyran-3,4,5-triol] | – | –
25 | 1440 | OC[C@H]1O[C@@H](c2ccc(Cl)c(Cc3ccc(OCc4cc5cc(F)ccc5o4)cc3)c2)[C@H](O)[C@@H](O)[C@@H]1O [Compound I-8, (2S,3R,4R,5S,6R)-2-(4-chloro-3-(4-((5-fluorobenzofuran-2-yl)methoxy)benzyl)phenyl)-6-(hydroxymethyl)tetrahydro-2H-pyran-3,4,5-triol] | – | –
